The subject of data set [1] is Mycobacterium tuberculosis. In words: Antibacterial activity against Mycobacterium tuberculosis H37Rv MTCC 300 assessed as bacterial growth inhibition by alamar blue assay. It counts as functional. (In general: Resazurin is reduced to fluorescent resorufin, in cell work by metabolically active cells.)
Data set [2] has as its system Mycobacterium tuberculosis. In words: Antibacterial activity against Mycobacterium tuberculosis assessed as bacterial growth inhibition. The format is functional.
The test system of data set [3] is Mycobacterium tuberculosis. Put plainly: Antibacterial activity against Mycobacterium tuberculosis MmpL3 assessed as bacterial growth inhibition by HTS assay. It counts as functional.
In data set [4] the test system is Mycobacterium tuberculosis. Put plainly: Antibacterial activity against wild type Mycobacterium tuberculosis H37Rv assessed as bacterial growth inhibition. It counts as functional, organism-based.
Data set [5] concerns Mycobacterium tuberculosis. In words: Antibacterial activity against Mycobacterium tuberculosis H37Rv (ATCC 27294) assessed as bacterial growth inhibition by MABA assay. The format is functional.
For data set [6], the system named is Mycobacterium tuberculosis. In words: Antibacterial activity against Mycobacterium tuberculosis H37Rv (ATCC 27294) assessed as bacterial growth inhibition incubated for 7 days by MABA assay. The format is functional. To be noted: 168 h, time 7 day.
For data set [7], the system named is Mycobacterium tuberculosis. In words: Antibacterial activity against wild type Mycobacterium tuberculosis H37Rv infected in BALB/c mouse assessed as bacterial growth inhibition po administrated for 5 days a week via gavage for 4 weeks. The format is functional. To be noted: 672 h.
Data set [8] has as its system Mycobacterium tuberculosis. In words: Antibacterial activity against Mycobacterium tuberculosis H37Rv infected in mouse RAW264.7 cells assessed as bacterial growth inhibition. It counts as functional.
The nature of data set [9]: Oral bioavailability in mouse. The format is ADME, organism-based. To be noted: in vivo.
The subject of data set [10] is Mycobacterium tuberculosis. In words: Antibacterial activity against Mycobacterium tuberculosis assessed as bacterial growth inhibition by HTS assay. The format is functional.
The target of data set [11] is T1, Enoyl-[acyl-carrier-protein] reductase [NADH] (Mycobacterium tuberculosis) (UniProt P9WGR1).
T1 sequence (whole entry): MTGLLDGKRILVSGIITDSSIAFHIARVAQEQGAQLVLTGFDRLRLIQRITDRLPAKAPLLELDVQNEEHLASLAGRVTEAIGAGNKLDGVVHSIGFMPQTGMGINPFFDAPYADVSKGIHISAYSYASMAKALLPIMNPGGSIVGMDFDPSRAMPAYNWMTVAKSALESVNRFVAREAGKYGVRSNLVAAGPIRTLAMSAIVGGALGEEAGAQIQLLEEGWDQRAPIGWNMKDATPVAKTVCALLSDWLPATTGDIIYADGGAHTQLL
In words: Inhibition of Mycobacterium tuberculosis InhA assessed as residence time.

Data set [12] has as its system Mycobacterium tuberculosis. In words: Antibacterial activity against wild type Mycobacterium tuberculosis H37Rv assessed as bacterial growth inhibition incubated for 6 days by HTS assay. It counts as functional. To be noted: 144 h, time 6 day.
Data set [13] concerns Mycobacterium tuberculosis. Put plainly: Antibacterial activity against Mycobacterium tuberculosis H37Rv assessed as bacterial growth inhibition incubated for 6 days by resazurin staining based assay. It counts as functional. To be noted: 144 h, time 6 day.
In data set [14] the test system is Mycobacterium tuberculosis. In words: Antibacterial activity against Mycobacterium tuberculosis H37Rv infected in mouse RAW264.7 cells assessed as bacterial growth inhibition by REMA assay. The format is functional.
Data set [15] concerns Mycobacterium tuberculosis. Put plainly: Antibacterial activity against Mycobacterium tuberculosis infected in mouse RAW264.7 cells assessed as bacterial growth inhibition by REMA assay. The format is functional, organism-based.
Data set [16] deals with Mycobacterium tuberculosis. Put plainly: Antibacterial activity against Mycobacterium tuberculosis H37Rv infected in human THP-1 cells assessed as bacterial growth inhibition. The format is functional.
In data set [17] the test system is Mycobacterium tuberculosis. Put plainly: Antibacterial activity against wild type Mycobacterium tuberculosis H37Rv assessed as bacterial growth inhibition by alamar blue staining based assay. The format is functional.
Data set [18] concerns Mycobacterium tuberculosis. Put plainly: Antibacterial activity against Mycobacterium tuberculosis H37RV ATCC 27294 assessed as bacterial growth inhibition. It counts as functional.

Structures are written as SMILES. ≈ marks a conversion by molar mass, not a printed value.

What is called MIC is the least concentration at which growth counts as inhibited. As to `O=C(Nc1nnc(-c2ccc([N+](=O)[O-])cc2)s1)C1CC(=O)N(c2ccccc2)C1` (stereo not drawn), the MIC in [1] stood at 61 µM (≈ 25 µg/mL).
`Oc1cc(Cl)ccc1Oc1ccc(Cl)cc1Cl` [TRICLOSAN]: the MIC in data set [2] was determined as 138 µM (≈ 40 µg/mL).
Turning to `CN(C)c1ccc(-c2nc3cc(F)c(-n4ccnc4)cc3n2Cc2ccccc2)cc1`, in [3], the MIC amounted to 30.3 µM (≈ 12.5 µg/mL).
With `C[C@H]1COC2(CCN(c3nc(=O)c4cc(C(F)(F)F)cc(-n5cccc5)c4s3)CC2)O1`, the MIC in data set [4] worked out at 0.35 µM.
Turning to `O=C(C1CCN(c2nnc(-n3cccc3)s2)CC1)N1CCC(Cc2ccccc2)CC1`, in data set [2], the MIC was found to be 4 µM (≈ 1.74 µg/mL).
As for `Cc1ccc(-c2nc3ccc(C)cn3c2CC(=O)N(C)C)cc1` [ZOLPIDEM], the MIC in data set [5] stood at 10 µM (≈ 3.07 µg/mL).
Take `Cc1cn2c(C(=O)NCc3ccc(N4CCC(c5ccc(OC(F)(F)F)cc5)CC4)cc3)c(C)nc2s1`: the MIC in data set [6] was 0.9 nM (≈ 0.000476 µg/mL).
On to `CC(C)=CCC/C(C)=C/CNCCNC1C2CC3CC(C2)CC1C3` (stereo not drawn) [SQ109], for which the MIC in data set [2] was found to be 0.78 µM (≈ 0.258 µg/mL).
In the case of `O=c1nc(N2CCN(CC3CCCCC3)CC2)sc2c([N+](=O)[O-])cc(C(F)(F)F)cc12` [MACOZINONE], the figures for the MIC in data set [7] and in [4] were 0.19 ng/mL (≈ 0.416 nM) and 0.19 ng/mL, respectively.
As a reminder, the MIC50 is the lowest concentration that inhibits either 50% of growth or 50% of the strains tested, depending on the study. In general, bioavailability refers to the share of a dose that reaches the circulation, judged against a reference dose that is usually intravenous. Lower therefore signals poor availability. Consider `CCc1nc2ccc(Cl)cn2c1C(=O)NCc1ccc(N2CCC(c3ccc(OC(F)(F)F)cc3)CC2)cc1` [TELACEBEC], for which the MIC50 in [8] amounted to 0.28 nM (≈ 0.000156 µg/mL); in data set [4], 2.7 nM (≈ 0.0015 µg/mL). This molecule registered a bioavailability in data set [9] of 90%.
For `Cc1c(CN2CCN(C)CC2)cc(-c2ccc(Cl)cc2)n1-c1ccc(Cl)cc1`, the MIC in [10] is 3.62 µM (≈ 1.5 µg/mL).
Still for that read-out and setting: to `Cc1c(CN2CCOCC2)cc(-c2ccc(C(C)C)cc2)n1-c1ccc(F)cc1` belongs 0.12 µM (≈ 0.0471 µg/mL).
As for `CCCCCCc1ccc(Oc2ccccc2C#N)c(O)c1`, in data set [2], the MIC was found to be 11 µM (≈ 3.25 µg/mL). For the same molecule, in [11], the TIME turned out to be 1.33 h.
Turning to `CC1(C)CCC(NC(=O)c2cc3c(F)cc(F)cc3[nH]2)CC1`, in data set [12], the MIC was found to be 0.023 µM (≈ 0.00705 µg/mL).
In the case of `c1cc2c(s1)CCOC21CCN(Cc2ccc3c(c2)OCCO3)CC1`, the MIC in [13] was determined as 0.3 µM (≈ 0.107 µg/mL).
For `CCc1ccc([C@H]2C[C@@H](C(F)(F)F)n3ncc(C(=O)NCc4ccc(OC)cc4)c3N2)cc1`, in [13], the MIC was 0.3 µM (≈ 0.138 µg/mL).
Turning to `CC[C@@H](CO)NCCN[C@@H](CC)CO` [ETHAMBUTOL], the MIC in data set [2] came to 10 µM (≈ 2.04 µg/mL).
On to `Cc1cn2c(C(=O)NCc3ccc(C(F)(F)F)cc3)c(C)nc2s1`, for which the MIC in data set [6] stood at 6 nM (≈ 0.00212 µg/mL).
With `FC(F)(F)Oc1ccc(Oc2ccc(CN3CCC4(CC3)OCCc3sccc34)cc2)cc1`, the MIC in data set [13] came to 0.06 µM (≈ 0.0285 µg/mL).
In the case of `O=c1nc(N2CCN(CC3CCCCC3)CC2)sc2c(-n3cccc3)cc(C(F)(F)F)cc12`, the MIC in data set [4] was found to be 0.34 µM.
By MIC90 is commonly meant an inhibitory concentration at the 90% level, which refers to growth in some studies and to a panel of isolates in others. For orientation: IC50 means the concentration needed to halve the response being measured. Take `Cc1c(OCC(F)(F)F)ccnc1CSc1nc2ccccc2[nH]1` [LANSOPRAZOLE SULFIDE]: in data set [14], the MIC90 stood at 1.13 µM (≈ 0.399 µg/mL). In addition, the IC50 in [15] was 590 nM; in [4] it was 460 nM.
Regarding `COc1ccc(CNc2nc3cc(C(F)(F)F)ccc3nc2C(=O)O)cc1`, the MIC in [4] was determined as 3.1 µM.
As for `CCCCCCc1ccc(Oc2ccccc2C)c(O)c1`, in data set [2], the MIC stood at 8.46 µM (≈ 2.41 µg/mL). In [11], the TIME was 0.4 h.
Consider `Cc1c(Cn2cc(C(=O)NCCO)c3ncccc32)ncnc1N(C)C`, for which the MIC in data set [16] was found to be 0.5 µM (≈ 0.177 µg/mL).
As for `CCc1ccc([C@H]2C[C@@H](C(F)(F)F)n3ncc(C(=O)NCc4ccc5c(c4)OCO5)c3N2)cc1`, the MIC in data set [13] was determined as 0.16 µM (≈ 0.0756 µg/mL).
For `Fc1cc2nc(Cc3ccc(Cl)cc3)[nH]c2cc1-n1ccnc1`, the MIC in data set [3] worked out at 76.5 µM (≈ 25 µg/mL).
Take `CCc1ccn2c(C(=O)NCc3ccc(C)cc3)c(C)nc2c1`: the MIC in data set [5] is 0.004 µM (≈ 0.00123 µg/mL).
Consider `CC1(C)CCC(NC(=O)c2cc3c(Cl)cc(Cl)cc3[nH]2)CC1`, for which, in data set [12], the MIC worked out at 0.015 µM (≈ 0.00509 µg/mL).
Turning to `CCCn1cnc2cc(NCc3ccc(Cl)cc3Cl)ccc21`, the MIC in data set [3] amounted to 16 µM (≈ 5.35 µg/mL).
On to `C[C@H]1COC2(CCN(c3nc(=S)c4cc(C(F)(F)F)cc([N+](=O)[O-])c4s3)CC2)O1`, for which the MIC in data set [17] came to 0.02 µM (≈ 0.00895 µg/mL).
As for `Cc1c(Cn2cc(C(=O)NCCO)c3ncccc32)ncnc1OC(F)F`, the MIC in data set [16] was found to be 0.78 µM (≈ 0.294 µg/mL).
With `OB1c2ccccc2N=C(S)N1c1cccnc1`, the MIC in data set [18] turned out to be 31.4 µM (≈ 8.01 µg/mL).
In the case of `Cc1c(OCC(F)(F)F)ccnc1C[S+]([O-])c1nc2ccccc2[nH]1` (stereo not drawn) [LANSOPRAZOLE], the IC50 in [4] worked out at 2200 nM.
With `C[C@H]1COC2(CCN(c3nc(=O)c4cc(C(F)(F)F)cc([N+](=O)[O-])c4s3)CC2)O1` [BTZ-043], the MIC was 1 ng/mL (≈ 2.32 nM) in data set [7] and 0.00023 µM in data set [4].
On to `CCOC(=O)NC(=O)c1ccsc1NC(=O)c1nc2ccccc2s1`, for which the MIC in [2] was 0.027 µM (≈ 0.0101 µg/mL).

These data come from ChEMBL document CHEMBL5244210, “Drug discovery in tuberculosis. New drug targets and antimycobacterial agents” (Eur J Med Chem, 2018).
